In brackets after ≈: the same amount, converted by molar mass. Read-outs that look alike come from different tables or passages of the source.
Tests used:
S. cerevisiae Hsp90 [1] = target: S. cerevisiae Hsp90; parameters: method as in Owen, B. A. L. et al. J. Biol. Chem. 277, 7086–7091 (2002); settings: ref Owen, B. A. L. et al. J. Biol. Chem. 277, 7086–7091 (2002); read-out: Kd for ATP; cited from earlier work
human Hsp90 [2] = target: human Hsp90; parameters: method as in Owen, B. A. L. et al. J. Biol. Chem. 277, 7086–7091 (2002); settings: ref Owen, B. A. L. et al. J. Biol. Chem. 277, 7086–7091 (2002); read-out: Kd for ATP; cited from earlier work
S. cerevisiae Hsp90 [3] = system: S. cerevisiae Hsp90; parameters: method as in Owen, B. A. L. et al. J. Biol. Chem. 277, 7086–7091 (2002); settings: ref Owen, B. A. L. et al. J. Biol. Chem. 277, 7086–7091 (2002); read-out: Km (ATP); cited from earlier work
human Hsp90 [4] = settings: read-out: Km (ATP); ref Owen, B. A. L. et al. J. Biol. Chem. 277, 7086–7091 (2002); cited from earlier work
C. albicans Hsp90 [5] = target: T1, C. albicans Hsp90 (Candida albicans, UniProt P46598); test: ATP binding by intrinsic tryptophan fluorescence quenching; settings: read-out: Kd for ATP; purified full-length Hsp90
Description: tryptophan fluorescence quenching by ligands.
Intrinsic tryptophan fluorescence was
Difference in intrinsic fluorescence of
assuming single-site specific binding.

C. albicans Hsp90 [6] = target: T1, C. albicans Hsp90; test: ATPase activity, Michaelis-Menten / Lineweaver-Burk; assay type: biochemical; parameters: the core ATPase activity of purified full-length homodimers from each species; 6x-His (pRSET-A) (N); made in house; host or cells: E. coli RIL; settings: γ-32P-labeled ATP
Description: 1151 Biochemical characterization of C. albicans Hsp90. a, Binding of C. albicans Hsp90 to its
1152 natural ligand ATP. b, Michaelis-Menten plot correlating the rate of ATP hydrolysis by C.
1153 albicans Hsp90 with concentration of substrate. Fractional cleavage of γ-32P-labeled ATP is
1154 plotted against ATP concentration. c, Lineweaver-Burk plot performed to define Km and kcat for
1155 the ATPase activity of C. albicans Hsp90. d, Comparison of parameters determined for C.
1156 albicans Hsp90 with previously published data for homologous human and yeast (S. cerevisiae)

[7] = target: T2, Hsp90 in C. albicans (SC5314) lysate (Candida albicans, UniProt P46598); test: biochemical; assay type: binding; settings: for FP signal: raw
T2 construct: endogenous in cells; host or cells: C. albicans SC5314 whole-cell lysate

[8] = system: S. cerevisiae expressing C. albicans Hsp90; test: Broth microdilution growth inhibition (MIC), yeast with C. albicans Hsp90 as sole Hsp90; assay type: cell-based, Saccharomyces cerevisiae
Description: A critical consideration in the development of an effective antifungal is not just target binding, but also access to the target across microbial cell membranes and cell walls. Therefore, we evaluated the potency and selectivity of oxime analogs using drug susceptibility assays. We used strains of S. cerevisiae where both endogenous genes encoding isoforms of Hsp90 have been disrupted and growth is solely dependent upon C. albicans or human Hsp90 isoforms.
Antifungal tolerance and resistance were determined in flat bottom, 96-well microtiter plates using a modified broth microdilution protocol as described[8],[10]. All Hsp90 inhibitors were formulated in dimethyl sulfoxide (DMSO, Sigma Aldrich Co.); fluconazole was dissolved in sterile ddH2O. Each strain was tested in duplicate on at least two occasions. […] To test for fungicidal activity, cultures from MIC plates were spotted on YPD agar plates using a spotter (Frogger, V&P Scientific, Inc). Plates were photographed after 48 h of incubations at 30 °C.

Hsp90 in HEPG2 lysate = settings: for FP signal: raw
[9] = system: C. albicans reporter strain CaLC922; assay type: cell-based, Candida albicans; settings: 6-h exposure
Protocol: In addition to effects on host immune function, we also examined activation of the evolutionarily conserved heat-shock response by CMLD013075.
Activation of the response in C. albicans was also measured in 96-well format using a reporter strain (CaLC922) engineered with HSP70 promoter elements driving expression of the LacZ gene from Streptococcus thermophilus integrated at the HSP70 locus with the URA3 marker for selection. […]

[10] = SC5314 lysate, 1.372 nM compound
[11] = SC5314 lysate, 4.115 nM compound
[12] = SC5314 lysate, 12.346 nM compound
[13] = SC5314 lysate, 37.037 nM compound
[14] = SC5314 lysate, 111.111 nM compound
[15] = SC5314 lysate, 333.333 nM compound
[16] = SC5314 lysate, 1000 nM compound
[17] = SC5314 lysate, 3000 nM compound

T2 sequence (P46598 whole entry): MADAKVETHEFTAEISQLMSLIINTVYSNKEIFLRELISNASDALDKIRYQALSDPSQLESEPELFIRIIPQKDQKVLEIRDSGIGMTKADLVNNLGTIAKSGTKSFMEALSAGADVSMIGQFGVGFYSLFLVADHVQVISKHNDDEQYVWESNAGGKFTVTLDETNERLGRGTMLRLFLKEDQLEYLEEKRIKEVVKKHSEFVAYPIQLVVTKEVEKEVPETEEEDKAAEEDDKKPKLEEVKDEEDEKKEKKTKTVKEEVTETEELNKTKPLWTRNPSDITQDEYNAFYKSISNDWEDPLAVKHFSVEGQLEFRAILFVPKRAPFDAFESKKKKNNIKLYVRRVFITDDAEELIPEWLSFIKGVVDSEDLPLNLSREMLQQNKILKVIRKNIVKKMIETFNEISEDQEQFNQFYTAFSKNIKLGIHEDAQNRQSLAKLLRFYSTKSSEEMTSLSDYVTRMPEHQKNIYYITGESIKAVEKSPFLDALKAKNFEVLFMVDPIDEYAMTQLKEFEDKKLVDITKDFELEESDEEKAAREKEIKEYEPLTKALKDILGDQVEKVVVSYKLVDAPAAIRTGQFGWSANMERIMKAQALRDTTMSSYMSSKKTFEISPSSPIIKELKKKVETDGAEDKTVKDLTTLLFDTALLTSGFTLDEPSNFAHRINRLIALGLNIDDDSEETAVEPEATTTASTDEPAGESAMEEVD
T1 sequence (P46598 whole entry): as above

## Nc1ncnc2c1ncn2[C@@H]1O[C@H](COP(=O)(O)OP(=O)(O)OP(=O)(O)O)[C@@H](O)[C@H]1O [ATP]
S. cerevisiae Hsp90 [1]
  Kd: 132 µM
Human Hsp90 [2]
  Kd: 240 µM
S. cerevisiae Hsp90 [3]
  Km: 511 µM
Human Hsp90 [4]
  Km: 324 µM
C. albicans Hsp90 [5]
  Kd: 125 µM
C. albicans Hsp90 [6]
  Km: 533 µM

## C[C@@H]1C[C@@H]2O[C@@H]2/C=C\C=C\C(=NOCc2ccccc2Cl)Cc2c(Cl)c(O)cc(O)c2C(=O)O1 [compound 4]
[7]; C. albicans SC5314 vs HEPG2 lysate, FP
  normalized fungal selectivity in lysates: 2.9 fold
[7]; EC50, SC5314 lysate, not normalized, oxime panel experiment 220817
  EC50: 0.531 µM
[7]; EC50 relative to GdA, SC5314 lysate
  Ratio re. GdA: 31.1993
[7]; SC5314 lysate, 0.457 nM compound
  FP signal relative to 0 nM: 0.9904
[7]; SC5314 lysate, 1.372 nM
  FP signal (raw): 208
[7]; [10]
  FP signal relative to 0 nM: 1
  FP signal: 208
[7]; SC5314 lysate, 4.115 nM
  FP signal (raw): 207
[7]; [11]
  FP signal relative to 0 nM: 0.9952
  FP signal: 207
[7]; SC5314 lysate, 12.346 nM
  FP signal (raw): 202
[7]; [12]
  FP signal relative to 0 nM: 0.9712
  FP signal: 202
[7]; SC5314 lysate, 37.037 nM
  FP signal (raw): 199
[7]; [13]
  FP signal relative to 0 nM: 0.9567
  FP signal: 199
[7]; SC5314 lysate, 111.111 nM
  FP signal (raw): 186
[7]; [14]
  FP signal relative to 0 nM: 0.8942
  FP signal: 186
[7]; SC5314 lysate, 333.333 nM
  FP signal (raw): 145
[7]; [15]
  FP signal relative to 0 nM: 0.6971
  FP signal: 145
[7]; SC5314 lysate, 1000 nM
  FP signal (raw): 75
[7]; [16]
  FP signal relative to 0 nM: 0.3606
  FP signal: 75
[7]; SC5314 lysate, 3000 nM
  FP signal (raw): 39
[7]; [17]
  FP signal relative to 0 nM: 0.1875
  FP signal: 39
[7]; ratio of GdA-normalized EC50s, human over fungal lysate
  HepG2/SC5314: 2.89
[7]; ratio of GdA-relative EC50 ratios, HepG2 over SC5314
  HepG2/SC5314: 2.89
[8]
  MIC: 2.6 µM (≈ 1.31 µg/mL)
Hsp90 in HEPG2 lysate; EC50 / EC50 of GdA in HepG2 lysate
  Ratio rel. GdA (HepG2): 90.1713
Hsp90 in HEPG2 lysate; EC50 relative to GdA, HEPG2 lysate
  Ratio rel. GdA (HepG2): 90.1713
Hsp90 in HEPG2 lysate; HEPG2 lysate, log concentration 0.137354 (1.372 nM)
  FP signal, Fxn Control: 1.0099
Hsp90 in HEPG2 lysate; HEPG2 lysate, log concentration 0.61437 (4.115 nM)
  FP signal, Fxn Control: 1.0198
Hsp90 in HEPG2 lysate; HEPG2 lysate, log concentration 1.09153 (12.346 nM)
  FP signal, Fxn Control: 1.0099
Hsp90 in HEPG2 lysate; HEPG2 lysate, log concentration 1.56864 (37.037 nM)
  FP signal, Fxn Control: 1.0099
Hsp90 in HEPG2 lysate; HEPG2 lysate, log concentration 2.04576 (111.111 nM)
  FP signal, Fxn Control: 0.9901
Hsp90 in HEPG2 lysate; HEPG2 lysate, log concentration 2.52288 (333.333 nM)
  FP signal, Fxn Control: 0.9158
Hsp90 in HEPG2 lysate; HEPG2 lysate, log concentration 3 (1000 nM)
  FP signal, Fxn Control: 0.6881
Hsp90 in HEPG2 lysate; HEPG2 lysate, log concentration 3.47712 (3000 nM)
  FP signal, Fxn Control: 0.2178
Hsp90 in HEPG2 lysate; HEPG2 lysate, log concentration -0.340084 (0.457 nM)
  FP signal, Fxn Control: 1.0099
Hsp90 in HEPG2 lysate; HepG2 lysate, 0.457 nM
  FP signal (raw): 204
Hsp90 in HEPG2 lysate; HepG2 lysate, 0.457 nM compound
  FP signal: 204
Hsp90 in HEPG2 lysate; HepG2 lysate, 1.372 nM
  FP signal (raw): 204
Hsp90 in HEPG2 lysate; HepG2 lysate, 1.372 nM compound
  FP signal: 204
Hsp90 in HEPG2 lysate; HepG2 lysate, 4.115 nM
  FP signal (raw): 206
Hsp90 in HEPG2 lysate; HepG2 lysate, 4.115 nM compound
  FP signal: 206
Hsp90 in HEPG2 lysate; HepG2 lysate, 12.346 nM
  FP signal (raw): 204
Hsp90 in HEPG2 lysate; HepG2 lysate, 12.346 nM compound
  FP signal: 204
Hsp90 in HEPG2 lysate; HepG2 lysate, 37.037 nM
  FP signal (raw): 204
Hsp90 in HEPG2 lysate; HepG2 lysate, 37.037 nM compound
  FP signal: 204
Hsp90 in HEPG2 lysate; HepG2 lysate, 111.111 nM
  FP signal (raw): 200
Hsp90 in HEPG2 lysate; HepG2 lysate, 111.111 nM compound
  FP signal: 200
Hsp90 in HEPG2 lysate; HepG2 lysate, 333.333 nM
  FP signal (raw): 185
Hsp90 in HEPG2 lysate; HepG2 lysate, 333.333 nM compound
  FP signal: 185
Hsp90 in HEPG2 lysate; HepG2 lysate, 1000 nM
  FP signal (raw): 139
Hsp90 in HEPG2 lysate; HepG2 lysate, 1000 nM compound
  FP signal: 139
Hsp90 in HEPG2 lysate; HepG2 lysate, 3000 nM
  FP signal (raw): 44
Hsp90 in HEPG2 lysate; HepG2 lysate, 3000 nM compound
  FP signal: 44
Hsp90 in HEPG2 lysate; HepG2 lysate, oxime panel experiment 220817
  EC50: 2 µM

## CC(C)c1cc(-c2n[nH]c(=O)n2-c2ccc3c(ccn3C)c2)c(O)cc1O [ganetespib, reference compound]
[9]
  heat-shock reporter activation: neither ganetespib nor radicicol induced the reporter to a measurable extent
293T reporter cells
  heat-shock reporter activation: concentration-dependent reporter activation

From publication PMC6345968, “Structural basis for species-selective targeting of Hsp90 in a pathogenic fungus” (Nature Communications, 2019)
